From US12486302B2, “Somatostatin receptor antagonist compounds and methods of using the same” (CDRD VENTURES INC., priority 2016, dated 2025)
*1 amine or outer side, *2 acyl side, *3 side chain or, on linkers, in order; H or OH if unused. Where a SMILES comes first, the peptide text is derived from it. Bridges are numbered along the chain shown (N, C = ends). Triazole bridges read from a SMILES are 1,4-linked. Side-chain parts run from the residue outwards. [ ]: non-standard residue; d: D form. The star is where a group is joined. ξ: configuration not given here. X3 = O=C([C@@H](Cc1ccc(NCCN2CCOCC2)cc1)N[*:1])[*:2]; dPhe(4-CONH2) = NC(=O)c1ccc(C[C@@H](N)C(=O)O)cc1; dPhe(4-CH2NH2) = NCc1ccc(C[C@@H](N)C(=O)O)cc1; dPhe(4-NH2) = Nc1ccc(C[C@@H](N)C(=O)O)cc1; Phe(4-Cl) = N[C@@H](Cc1ccc(Cl)cc1)C(=O)O; dDap(N3) = [N-]=[N+]=NC[C@@H](N)C(=O)O; Dap(N3) = [N-]=[N+]=NC[C@H](N)C(=O)O; d(hCit) = NC(=O)NCCCC[C@@H](N)C(=O)O; Ethyl(2-morpholino) = C1CN(CC*)CCO1; dCit = NC(=O)NCCC[C@@H](N)C(=O)O; Lys(Me) = CNCCCC[C@H](N)C(=O)O; ξY = NC(Cc1ccc(O)cc1)C(=O)O; dNMeC = CN[C@H](CS)C(=O)O; MeOSuc = COC(=O)CCC(=O)*; Pra = C#CC[C@H](N)C(=O)O; ξF = NC(Cc1ccccc1)C(=O)O; CO = O=C([*:1])[*:2]; NHPh = c1ccc(N*)cc1; βAla = NCCC(=O)O

Tests used:
[1] = target: somatostatin type 2 (SSTR2) receptors (Homo sapiens, UniProt P30874); test: PathHunter β-Arrestin assay, antagonist mode, SSTR2; assay type: cell-based; details: agonist challenge at EC80
Procedure, shortened: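 Cells co-expressing PK-tagged human receptor and EA-β-Arrestin were pre-incubated with compound, then challenged with agonist at EC80. β-Gal complementation read by chemiluminescence; % inhibition normalized to EC80 and vehicle controls at 10 concentrations (log 3 steps from 1 μM down to 5e-5 μM), fitted for IC50.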

SSTR3 = SSTR3 (Homo sapiens, UniProt P32745); test: PathHunter β-Arrestin assay, antagonist mode, SSTR3; assay type: cell-based; details: agonist challenge at EC80
Experimental: The PathHunter® β-Arrestin assay monitors the activation of a GPCR in a homogenous, non-imaging assay format using a technology developed by DiscoveRx called Enzyme Fragment Complementation (EFC) with β-galactosidase (β-Gal) as the functional reporter. […] EA is fused to β-Arrestin and […] is fused to the GPCR of interest. When the GPCR is activated and β-Arrestin is recruited to the receptor, ED and EA complementation occurs, restoring β-Gal activity which is measured using chemiluminescent PathHunter® Detection Reagents. For antagonist determination, cells were pre-incubated with the compounds followed by agonist challenge at the EC80 concentration. Data was normalized to the maximal and minimal response observed in the presence of EC80 ligand and vehicle. Compound activity was analyzed using CBIS data analysis suite ChemInnovation, CA). Percentage inhibition was calculated using the following formula: % Inhibition=100%×(1−(mean signal of test sample-mean signal of vehicle control)/(mean signal of EC80 control-mean signal of vehicle control)). Percentage inhibition was calculated at 10 concentrations in steps on a Log 3 scale ranging from […] to 5e-5 μM. The results were plotted for IC50 calculation.

Sequence of somatostatin type 2 (SSTR2) receptors (P30874 whole entry): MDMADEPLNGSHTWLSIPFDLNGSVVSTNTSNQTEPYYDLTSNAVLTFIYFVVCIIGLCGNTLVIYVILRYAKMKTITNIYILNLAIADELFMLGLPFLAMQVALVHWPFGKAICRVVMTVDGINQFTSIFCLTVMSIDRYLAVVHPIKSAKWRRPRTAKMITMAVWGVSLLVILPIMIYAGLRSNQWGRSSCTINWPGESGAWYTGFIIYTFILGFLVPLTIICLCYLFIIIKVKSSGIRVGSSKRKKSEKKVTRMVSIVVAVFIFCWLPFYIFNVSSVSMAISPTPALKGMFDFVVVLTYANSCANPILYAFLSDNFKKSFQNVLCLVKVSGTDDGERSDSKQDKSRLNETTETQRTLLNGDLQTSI
Sequence of SSTR3 (P32745 whole entry, the tested form may be a part): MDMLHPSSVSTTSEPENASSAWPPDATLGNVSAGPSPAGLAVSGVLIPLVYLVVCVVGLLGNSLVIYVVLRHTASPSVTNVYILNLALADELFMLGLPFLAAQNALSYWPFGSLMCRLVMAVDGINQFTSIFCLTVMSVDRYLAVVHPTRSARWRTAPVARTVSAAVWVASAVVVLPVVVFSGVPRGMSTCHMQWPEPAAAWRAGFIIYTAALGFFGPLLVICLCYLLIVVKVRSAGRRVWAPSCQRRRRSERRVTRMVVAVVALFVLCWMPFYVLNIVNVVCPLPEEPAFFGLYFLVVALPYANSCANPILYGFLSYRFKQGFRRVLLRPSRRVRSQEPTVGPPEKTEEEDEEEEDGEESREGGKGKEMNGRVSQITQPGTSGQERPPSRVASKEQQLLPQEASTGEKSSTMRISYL

IC50 [1] [µM] | IC50 (SSTR3) [µM] | Compound
0.334 | > 1 | C[C@@H](O)[C@@H]1NC(=O)[C@H](CCCCN)NC(=O)[C@@H](Cc2ccc(OCCN3CCOCC3)cc2)NC(=O)[C@H](Cc2ccc(O)cc2)NC(=O)[C@H](NC(=O)[C@@H](N)Cc2ccc(Cl)cc2)CSSC[C@@H](C(=O)N[C@H](Cc2ccc(O)cc2)C(N)=O)NC1=O [Compound 13, H-Cpa-cyclo[DCys- Tyr-D-(2-(4- morpholinyl)ethyl) Tyr-Lys-Thr- Cys]-DTyr-NH2] (H-[Phe(4-Cl)][dC]Y[dY](Ethyl(2-morpholino))KTC[dY]-NH2; disulfide 2-7)
0.213 | > 1 | C[C@@H](O)[C@@H]1NC(=O)[C@H](CCCCN)NC(=O)[C@@H](Cc2ccc(CN)cc2)NC(=O)[C@H](Cc2ccc(O)cc2)NC(=O)[C@H](NC(=O)[C@@H](N)Cc2ccc(Cl)cc2)CSSC[C@@H](C(=O)N[C@H](Cc2ccc(O)cc2)C(N)=O)NC1=O [Compound 5, H-Cpa-cyclo[DCys- Tyr-D-(4-aminomethyl)Phe- Lys-Thr-Cys]- DTyr-NH2] (H-[Phe(4-Cl)][dC]Y[dPhe(4-CH2NH2)]KTC[dY]-NH2; disulfide 2-7)
> 1 | > 1 | C[C@@H](O)[C@@H]1NC(=O)[C@H](CCCCN)NC(=O)[C@@H](Cc2ccc(NC(=O)[C@@H](N)CCCCN)cc2)NC(=O)[C@H](Cc2ccc(O)cc2)NC(=O)[C@H](NC(=O)[C@@H](N)Cc2ccc(Cl)cc2)CSSC[C@@H](C(=O)N[C@H](Cc2ccc(O)cc2)C(N)=O)NC1=O [Compound 17, H-Cpa-cyclo[DCys- Tyr-D-4-(Lys) Aph-Lys-Thr- Cys]-DTyr-NH2] (H-[Phe(4-Cl)][dC]Y[dPhe(4-NH2)](Lys)KTC[dY]-NH2; disulfide 2-7)
0.458 | > 1 | CC(C)[C@H](N)C(=O)Nc1ccc(C[C@H]2NC(=O)[C@H](Cc3ccc(O)cc3)NC(=O)[C@H](NC(=O)[C@@H](N)Cc3ccc(Cl)cc3)CSSC[C@@H](C(=O)N[C@H](Cc3ccc(O)cc3)C(N)=O)NC(=O)[C@H]([C@@H](C)O)NC(=O)[C@H](CCCCN)NC2=O)cc1 [Compound 23, H-Cpa-cyclo[DCys- Tyr-D-4-(Val)Aph- Lys-Thr-Cys]- DTyr-NH2] (H-[Phe(4-Cl)][dC]Y[dPhe(4-NH2)](Val)KTC[dY]-NH2; disulfide 2-7)
0.181 | > 1 | C[C@@H](O)[C@@H]1NC(=O)[C@H](CCCCN)NC(=O)[C@@H](CCCCNC(N)=O)NC(=O)[C@H](Cc2ccc(O)cc2)NC(=O)[C@H](NC(=O)[C@@H](N)Cc2ccc(Cl)cc2)CSSC[C@@H](C(=O)N[C@H](Cc2ccc(O)cc2)C(N)=O)NC1=O [Compound 2, H-Cpa-cyclo[DCys- Tyr-DHoCit-Lys- Thr-Cys]- DTyr-NH2] (H-[Phe(4-Cl)][dC]Y[d(hCit)]KTC[dY]-NH2; disulfide 2-7)
> 1 | > 1 | C[C@@H](O)[C@@H]1NC(=O)[C@H](CCCCN)NC(=O)[C@@H](Cc2ccc(NC(=O)[C@@H]3CCCN3)cc2)NC(=O)[C@H](Cc2ccc(O)cc2)NC(=O)[C@H](NC(=O)[C@@H](N)Cc2ccc(Cl)cc2)CSSC[C@@H](C(=O)N[C@H](Cc2ccc(O)cc2)C(N)=O)NC1=O [Compound 10, H-Cpa-cyclo[DCys- Tyr-D-4-(Pro) Aph-Lys- Thr-Cys]- DTyr-NH2] (H-[Phe(4-Cl)][dC]Y[dPhe(4-NH2)](Pro)KTC[dY]-NH2; disulfide 2-7)
0.243 | > 1 | C[C@@H](O)[C@@H]1NC(=O)[C@H](CCCCN)NC(=O)[C@@H](Cc2ccc(NCCN3CCOCC3)cc2)NC(=O)[C@H](Cc2ccc(O)cc2)NC(=O)[C@H](NC(=O)[C@@H](N)Cc2ccc(Cl)cc2)CSSC[C@@H](C(=O)N[C@H](Cc2ccc(O)cc2)C(N)=O)NC1=O [Compound 11, H-Cpa-cyclo [DCys-Tyr- D-4-(2-(4- morpholinyl) ethyl)Aph- Lys-Thr-Cys]- DTyr-NH2] (H-[Phe(4-Cl)][dC]Y[X3]KTC[dY]-NH2; disulfide 2-7)
0.688 | – | C[C@@H](O)[C@@H]1NC(=O)[C@H](CCCCN)NC(=O)[C@@H](Cc2ccc(C(N)=O)cc2)NC(=O)[C@H](Cc2ccc(O)cc2)NC(=O)[C@@H](NC(=O)[C@@H](N)Cc2ccc(Cl)cc2)Cc2cn(nn2)C[C@@H](C(=O)N[C@H](Cc2ccc(O)cc2)C(N)=O)NC1=O [Compound 65] (H-[Phe(4-Cl)][Pra]Y[dPhe(4-CONH2)]KT[Dap(N3)][dY]-NH2; triazole 2-7)
0.0146 | – | COc1ccc(CC(NC(=O)[C@@H]2CSSC[C@@H](NC(=O)[C@@H](N)Cc3ccc(Cl)cc3)C(=O)N[C@@H](Cc3ccc(OC)cc3)C(=O)N[C@H](Cc3ccc(C(N)=O)cc3)C(=O)N[C@@H](CCCCN)C(=O)N[C@@H]([C@@H](C)O)C(=O)N2)C(N)=O)cc1 (stereo partly drawn) [Compound 45, H-Cpa-cyclo[DCys- 4-OMe-Phe-D-(4- carbamoyl)Phe-Lys- Thr-Cys]-4-OMe-D- Phe-NH2] (H-[Phe(4-Cl)][dC]Y(Me)[dPhe(4-CONH2)]KTC[ξY](Me)-NH2; disulfide 2-7)
0.00286 | – | CNCCCC[C@@H]1NC(=O)[C@@H](Cc2ccc(C(N)=O)cc2)NC(=O)[C@H](Cc2ccc(O)cc2)NC(=O)[C@H](NC(=O)[C@H](Cc2ccc(Cl)cc2)NC(=O)CCN)CSSC[C@@H](C(=O)N[C@H](Cc2ccc(O)cc2)C(N)=O)NC(=O)[C@H]([C@@H](C)O)NC1=O [Compound 49, H-β-Ala-Cpa-cyclo[D-Cys-Tyr-D-Phe(4-carbamoyl)-Lys (Nε-Me)-Thr-Cys]-D-Tyr-NH2] (H-[βAla][Phe(4-Cl)][dC]Y[dPhe(4-CONH2)][Lys(Me)]TC[dY]-NH2; disulfide 3-8)
0.00131 | – | CNCCCC[C@@H]1NC(=O)[C@@H](Cc2ccc(C(N)=O)cc2)NC(=O)[C@H](Cc2ccc(Cl)cc2)NC(=O)[C@H](NC(=O)[C@@H](N)Cc2ccc(Cl)cc2)CSSC[C@@H](C(=O)NC(Cc2ccc(O)cc2)C(N)=O)NC(=O)[C@H]([C@@H](C)O)NC1=O (stereo partly drawn) [Compound 48, H-Cpa-cyclo[D-Cys-Cpa-D-Phe(4-carbamoyl)-Lys(N^ε-Me)-Thr-Cys]-D-Tyr-NH2] (H-[Phe(4-Cl)][dC][Phe(4-Cl)][dPhe(4-CONH2)][Lys(Me)]TC[ξY]-NH2; disulfide 2-7)
0.00236 | – | CNCCCC[C@@H]1NC(=O)[C@@H](Cc2ccc(C(N)=O)cc2)NC(=O)[C@H](Cc2ccc(O)cc2)NC(=O)[C@H](NC(=O)[C@H](Cc2ccc(Cl)cc2)NC(=O)CCC(=O)OC)CSSC[C@@H](C(=O)N[C@H](Cc2ccc(O)cc2)C(N)=O)NC(=O)[C@H]([C@@H](C)O)NC1=O [Compound 58, CH3O2C(CH2)2(CO)-Cpa-cyclo[D-Cys-Tyr-D-Phe(4-carbamoyl)-Lys(N^ε-Me)-Thr-Cys]-D-Tyr-NH2] (MeOSuc-[Phe(4-Cl)][dC]Y[dPhe(4-CONH2)][Lys(Me)]TC[dY]-NH2; disulfide 2-7)
0.0704 | – | CNCCCC[C@@H]1NC(=O)[C@@H](CCCNC(N)=O)NC(=O)[C@H](Cc2ccc(O)cc2)NC(=O)[C@H](NC(=O)[C@@H](N)Cc2ccc(Cl)cc2)CSSC[C@@H](C(=O)N[C@H](Cc2ccc(O)cc2)C(N)=O)NC(=O)[C@H]([C@@H](C)O)NC1=O [Compound 31, H-Cpa-cyclo[DCys- Tyr-D-Cit- (N—Me)Lys-Thr- Cys]-DTyr-NH2] (H-[Phe(4-Cl)][dC]Y[dCit][Lys(Me)]TC[dY]-NH2; disulfide 2-7)
0.0244 | – | C[C@@H](O)[C@@H]1NC(=O)[C@H](CCCCN)NC(=O)[C@@H](Cc2ccc(C(N)=O)cc2)NC(=O)[C@H](Cc2ccccc2)NC(=O)[C@H](NC(=O)[C@@H](N)Cc2ccc(Cl)cc2)CSSC[C@@H](C(=O)NC(Cc2ccccc2)C(N)=O)NC1=O (stereo partly drawn) [Compound 41, H-Cpa-cyclo[DCys- Phe-D-(4- carbamoyl)Phe-Lys- Thr-Cys]-DPhe-NH2] (H-[Phe(4-Cl)][dC]F[dPhe(4-CONH2)]KTC[ξF]-NH2; disulfide 2-7)
0.00679 | – | C[C@@H](O)[C@@H]1NC(=O)[C@H](CCCCN)NC(=O)[C@@H](Cc2ccc(C(N)=O)cc2)NC(=O)[C@H](Cc2ccc(O)cc2)NC(=O)[C@H](N(C)C(=O)[C@@H](N)Cc2ccc(Cl)cc2)CSSC[C@@H](C(=O)N[C@H](Cc2ccc(O)cc2)C(N)=O)NC1=O [Compound 78, H-Cpa- [NMeDCys- Tyr-DPhe (4-carbamoyl)- Lys-Thr-Cys]- DTyr-NH2] (H-[Phe(4-Cl)][dNMeC]Y[dPhe(4-CONH2)]KTC[dY]-NH2; disulfide 2-7)
> 1 | – | C[C@@H](O)[C@@H]1NC(=O)[C@H](CCCCN)NC(=O)[C@@H](Cc2ccc(C(N)=O)cc2)NC(=O)[C@H](Cc2ccc(O)cc2)NC(=O)[C@H](NC(=O)[C@@H](N)Cc2ccc(Cl)cc2)Cn2cc(nn2)C[C@@H](C(=O)N[C@H](Cc2ccc(O)cc2)C(N)=O)NC1=O [Compound 64] (H-[Phe(4-Cl)][dDap(N3)]Y[dPhe(4-CONH2)]KT[Pra][dY]-NH2; triazole 2-7)
0.00232 | – | CNCCCC[C@@H]1NC(=O)[C@@H](Cc2ccc(NC(=O)Nc3ccccc3)cc2)NC(=O)[C@H](Cc2ccc(O)cc2)NC(=O)[C@H](NC(=O)[C@@H](N)Cc2ccc(Cl)cc2)CSSC[C@@H](C(=O)NC(Cc2ccc(O)cc2)C(N)=O)NC(=O)[C@H]([C@@H](C)O)NC1=O (stereo partly drawn) [Compound 25, H-Cpa-cyclo[D-Cys-Tyr-D-Phe(4-phenylureido)-Lys(N^ε-Me)-Thr-Cys]-D-Tyr-NH2] (H-[Phe(4-Cl)][dC]Y[dPhe(4-NH2)]([CO-NHPh])[Lys(Me)]TC[ξY]-NH2; disulfide 2-7)
